Ends that are not written are not given here.
Key:
B3K-06 TCR = assay: Binding of fluorescent soluble B3K-06 αβTCR to SF9 cells displaying IA^b-peptide (flow cytometry); parameters: species or system mouse
Procedure: (§1) Next fluorescent, soluble αβTCR reagents were prepared for use in flow cytometry to detect insect cells displaying the appropriate MHCII/peptide combination. Fluorescent multivalent versions of the soluble αβTCR's of B3K-06 and YAe-62 bound to insect cells displaying the IA^b-p3K, but not a control MHCII-peptide combination (data not shown).
(§2) Insect cells displaying IA^b-p3K bound the αβTCR reagents very heterogeneously, probably due to heterogeneous expression of IA^b-p3K due to variations in the multiplicity of infection and the lack of synchrony in viral infection and expression. […] In this case, there was a direct correlation between the amount of surface IA^b-p3K expressed by an individual insect cell and the amount of αβTCR bound with cells bearing a particular level of IA^b-p3K binding the αβTCRs uniformly (data not shown). Therefore, comparing the two types of staining gave a useful tool to evaluate the relation between peptide sequence and the strength of αβTCR binding (see below).
(§3) A large number of SF9 insect cells were infected at an MOI of about one with baculovirus carrying the IA^b peptide library. After 3-4 days the cells were analyzed with fluorescent B3K-06 or YAe-62 soluble αβTCR, as described above. Fluorescent cells were sorted and cultured with fresh uninfected SF9 cells to create new infected cells for analysis and an enriched viral stock. This process was repeated 3 to 4 times. In each case, when no clear fluorescent population was apparent, the brightest 1% of the infected cells was sorted. In later rounds, the majority of the cells in a clearly distinguishable fluorescent population were sorted. Infected cells binding the B3K-06 αβTCR were apparent only after two rounds of enrichment but eventually yielded a population with uniform binding (data not shown). Infected cells that bound the YAe-62 αβTCR were detectable even with the initial library of viruses and enriched rapidly to yield a population with more heterogeneous levels of binding to the receptor (data not shown).
(§4) At the time of the final enrichment, single infected cells binding each of αβTCRs were sorted into individual wells of 96 well culture plates containing fresh SF9 cells in order to prepare clonal viral stocks. These stocks were used to infect fresh SF9 cells which were reanalyzed for binding to the appropriate αβTCR as described above. […] The majority of PCR fragments yielded a single unambiguous peptide sequence. These viruses were used to infect SF9 cells that expressed mouse ICAM and B7.1. The infected cells were used as APCs for either the B3K-06 or YAe-62 hybridoma with IL-2 production being a measure of IA^b-peptide recognition. Viruses expressing IA^b-peptide combinations that neither bound to the αβTCR nor stimulated the T cell hybridomas were used as negative controls and virus producing IA^b-p3K was used as the positive control. Results with a few representative virus clones are shown in FIG. 10A and 10B, and a summary of all of the results are shown in Table 1.

B3K-06 hybridoma = assay: IL-2 production by B3K-06 T cell hybridoma in response to IA^b-peptide presenting APCs; assay type: cell-based, mouse
Description: The hybridoma, B3K-06 was produced from wild-type C57BL/6 mice immunized conventionally with the peptide (Rees et al., 1999, supra). […] Also, as is commonly seen with conventional T cells, the interaction of the αβ TcR of B3K-06 with IA^b-p3K is very sensitive to changes in any of the peptide amino acids exposed on the surface of the IA^b-p3K complex. Mutation of positions Q2, K3, K5, N7 or K8 to alanine virtually eliminates recognition of p3K by B3K-06 (Liu et al., 2002, supra and additional data not shown).
as §4

YAe-62 hybridoma = assay: IL-2 production by YAe-62 T cell hybridoma in response to IA^b-peptide presenting APCs; assay type: cell-based, mouse; conditions: for IL-2 Production (units/ml): YAe-62 hybridoma, infected SF9 cells expressing mouse ICAM and B7.1 as APCs
Description: The mouse T cell hybridoma, referred to as YAe-62, was chosen as a representative of broadly reactive T cells present in mice carrying transgenes and gene knockouts that lead to expression of MHC Class II that are almost completely occupied by a single peptide (Ignatowicz et al., 1996, Cell 84:521-529). The T cell was produced by immunization with p3K bound to IA^b in mice that express IA^b covalently linked to Eα, a dominant IA^b binding peptide derived from the MHC Class II IEα chain. YAe-62 responds to IA^b-p3K, but not to APCs lacking MHC Class II or to the IA^b-pEα APCs from the mouse from which it was derived. YAe-62 is also reactive against many cell types bearing IA^b in the absence of p3K. It also responds to APCs from a variety of mice carrying other alleles of IA. The inventors have postulated that this T cell responds mainly to the evolutionarily conserved regions of the IA molecule with less dependence on the peptide than seen with conventional T cells (Marrack et al., 2001, J. Immunol. 167:617-621). […] From the X-ray crystal structure of IA^b (Liu et al., 2002, supra) enough was known about how peptides bind to this MHC molecule to design a strategy in which the major MHC anchor amino acids of the peptide could be held constant and only five surface exposed amino acids need be varied in the library (FIG. 8).
as §4

YAe-62 TCR = assay: Binding of fluorescent soluble YAe-62 αβTCR to SF9 cells displaying IA^b-peptide (flow cytometry); parameters: species or system mouse; conditions: for YAe-62 TCR Binding (% of p3K): IA^b-peptide displayed on baculovirus-infected SF9 cells, fluorescent soluble αβTCR
Procedure: as §1, §2, §3, §4

[1] = insect cells displaying IA^b-peptide

Substance	IL-2 Production (units/ml) (YAe-62 hybridoma)	YAe-62 TCR Binding (% of p3K) (YAe-62 TCR)	also measured
F E A Q R A R A A R A V (FEAQRARAARAV; also: tethered to IA^b) [SEQ ID NO:16]			B3K-06 TCR Binding (% of p3K) (B3K-06 TCR; IA^b-peptide displayed on baculovirus-infected SF9 cells, fluorescent soluble αβTCR): 66.8 % of p3K; binding of B3K-06 αβTCR to IA^b-peptide complex (in words) (B3K-06 TCR; [1]): only slightly less well than did the IA^b-p3K complex; IL-2 Production (units/ml) (B3K-06 hybridoma; B3K-06 hybridoma, infected SF9 cells expressing mouse ICAM and B7.1 as APCs): 25 units/ml; stimulation of B3K-06 to produce IL-2 (in words) (B3K-06 hybridoma; bound to IA^b on B7/ICAM expressing SF9 APCs): able to stimulate B3K-06 to produce IL-2, but not nearly as well as did p3K
F E A Q V A H A L P A V (FEAQVAHALPAV; synthetic peptide motif) [SEQ ID NO:29]	32 units/ml	48.6 % of p3K	
F E A R C A K A S T A V (FEARCAKASTAV; synthetic peptide motif) [SEQ ID NO:20]	467 units/ml	102.5 % of p3K	
F E A R E A K A L A A V (FEAREAKALAAV; synthetic peptide motif) [SEQ ID NO:32]	<3 units/ml	27.0 % of p3K	
F E A R L A S A G K A V (FEARLASAGKAV; synthetic peptide motif) [SEQ ID NO:35]	<3 units/ml	2.6 % of p3K	
F E A R T A H A R N A V (FEARTAHARNAV; synthetic peptide motif) [SEQ ID NO:37]	<3 units/ml	1.4 % of p3K	
F E A S K A S A A V A V (FEASKASAAVAV; synthetic peptide motif) [SEQ ID NO:34]	<3 units/ml	13.0 % of p3K	
F E A S L A R A R S A V (FEASLARARSAV) [SEQ ID NO:24]	5 units/ml	76.2 % of p3K	
F E A T T A R A L T A V (FEATTARALTAV; synthetic peptide motif) [SEQ ID NO:27]	6 units/ml	52.0 % of p3K	
F E A Y T A R A R T A V [SEQ ID NO:25] (FEAYTARARTAV)	5 units/ml	58.3 % of p3K	
F E A Y T A R A R T A V [SEQ ID NO:26] (FEAYTARARTAV; synthetic peptide motif)	7 units/ml	54.9 % of p3K	
FEAQTAKARGAVD (synthetic peptide motif)			difference in the amount of IL-2 production stimulated by the two peptides (YAe-62 hybridoma; SEQ ID NO:39 versus SEQ ID NO:40): 100 fold; binding of YAe-62 αβTCR to IA^b-peptide complex (in words) (YAe-62 TCR; [1]): nearly equally well

From patent US20040110253A1, “Method for identifying MHC-presented peptide epitopes for T cells” (priority 2002, published 2004)
